These results are taken from US20240109853A1 (Shanghai Yao Yuan Biotechnology Co., Ltd., priority 2020, published 2024).

Like-named read-outs stand apart in the source and are kept apart here.

This assay has as its target ALPK1 (Homo sapiens (Human), UniProt Q96QP1). The assay can be described thus: ALPK1 in vitro kinase assay (HTRF of TIFA phosphorylation). Type of assay: biochemical.
[1] abbreviates: ALPK1 2 nM, TIFA substrate, ADP-Heptose activator, HTRF readout.

Sequence of ALPK1 (Q96QP1 whole entry): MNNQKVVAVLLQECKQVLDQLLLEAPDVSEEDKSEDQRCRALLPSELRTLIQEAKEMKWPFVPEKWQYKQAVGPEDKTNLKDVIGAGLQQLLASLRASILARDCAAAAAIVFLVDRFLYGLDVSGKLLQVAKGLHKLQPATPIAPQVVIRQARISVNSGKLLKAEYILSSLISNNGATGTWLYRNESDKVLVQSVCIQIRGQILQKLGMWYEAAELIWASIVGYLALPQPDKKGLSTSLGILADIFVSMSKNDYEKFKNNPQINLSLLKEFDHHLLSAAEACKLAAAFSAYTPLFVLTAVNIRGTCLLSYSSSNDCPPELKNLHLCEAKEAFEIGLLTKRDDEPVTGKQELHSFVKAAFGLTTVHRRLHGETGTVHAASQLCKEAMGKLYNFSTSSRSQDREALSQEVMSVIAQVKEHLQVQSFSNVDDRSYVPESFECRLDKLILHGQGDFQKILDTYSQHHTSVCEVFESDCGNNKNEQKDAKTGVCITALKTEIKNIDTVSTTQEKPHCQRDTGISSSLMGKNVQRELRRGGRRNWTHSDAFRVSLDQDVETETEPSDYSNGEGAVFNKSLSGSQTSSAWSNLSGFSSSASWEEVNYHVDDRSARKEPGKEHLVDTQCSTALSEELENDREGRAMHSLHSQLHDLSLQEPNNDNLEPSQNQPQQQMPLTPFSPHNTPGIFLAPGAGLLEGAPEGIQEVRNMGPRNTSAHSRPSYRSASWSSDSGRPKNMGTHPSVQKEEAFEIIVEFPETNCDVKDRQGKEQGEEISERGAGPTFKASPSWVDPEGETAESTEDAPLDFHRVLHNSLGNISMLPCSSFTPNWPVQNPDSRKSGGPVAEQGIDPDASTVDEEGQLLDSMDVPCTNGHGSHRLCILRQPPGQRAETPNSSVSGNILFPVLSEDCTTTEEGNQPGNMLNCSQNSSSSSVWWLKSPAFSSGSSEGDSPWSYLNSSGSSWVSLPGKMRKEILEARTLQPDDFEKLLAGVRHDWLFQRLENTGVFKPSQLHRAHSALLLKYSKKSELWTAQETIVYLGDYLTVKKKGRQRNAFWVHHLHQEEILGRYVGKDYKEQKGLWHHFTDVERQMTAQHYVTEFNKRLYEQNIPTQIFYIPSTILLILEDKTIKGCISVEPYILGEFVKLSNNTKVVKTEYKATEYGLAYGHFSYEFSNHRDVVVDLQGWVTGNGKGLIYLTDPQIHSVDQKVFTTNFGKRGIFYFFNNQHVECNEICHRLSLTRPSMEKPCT

The IC50 is the concentration that gives 50% inhibition. Lower therefore signals inhibition by little substance. `COc1ccc(C(C)(C)c2csc(NC(=O)c3ccc(CN4CCN(CCO)CC4)cc3)n2)cc1` [Example B034, 4-((4-(2-hydroxyethyl)piperazin-1-yl)methyl)-N-(4-(2-(4-methoxyphenyl)propan-2-yl)thiazol-2-yl)benzamide] gave an IC50 under setting [1] of 44 nM.
`COc1ccc(C(C)(C)c2csc(NC(=O)NCc3cccc(N4CCNCC4)n3)n2)cc1` [Example A043, 1-(4-(2-(4-methoxyphenyl)propan-2-yl)thiazol-2-yl)-3-((6-(piperazin-1-yl)pyridin-2-yl)methyl)urea] displayed an IC50 of 165 nM.
On to `CN1CCN(c2cc(F)c(C(=O)Nc3nc(C4(c5ccc(Br)cc5)CCCC4)cs3)c(F)c2)CC1` [Example C015, N-(4-(1-(4-bromophenyl)cyclopentyl)thiazol-2-yl)-2,6-difluoro-4-(4-methylpiperazin-1-yl)benzamide], for which half-maximal inhibition under setting [1] (IC50) was put at 266 nM.
Same read-out and setting: next, `CC(c1ccc(Cl)cc1)c1csc(NC(=O)c2c(F)cc(N3CCNCC3)cc2F)n1` (centres unmarked) [Example C003, N-(4-(1-(4-chlorophenyl)ethyl)thiazol-2-yl)-2,6-difluoro-4-(piperazin-1-yl)benzamide]: 11 nM.
For `COc1ccc(C(C)(C)c2csc(NC(=O)c3ccc(N4CCC(O)C4)cc3)n2)cc1` (centres unmarked) [Example B009, 4-(3-hydroxypyrrolidin-1-yl)-N-(4-(2-(4-methoxyphenyl)propan-2-yl)thiazol-2-yl)benzamide], the IC50 under setting [1] was 951 nM.
On the same count and under the same terms, next, `COc1ccc(C(C)(C)c2csc(NC(=O)c3ccc(CN4CCN(C)CC4)cc3)n2)cc1` [Example B017, N-(4-(2-(4-methoxyphenyl)propan-2-yl)thiazol-2-yl)-4-((4-methylpiperazin-1-yl)methyl)benzamide]: 148 nM; `CC(C)(c1ccc(Br)cc1)c1csc(NC(=O)NCc2cc(F)c(N3CCNCC3)c(F)c2)n1` [Example B037, 1-(4-(2-(4-bromophenyl)propan-2-yl)thiazol-2-yl)-3-(3,5-difluoro-4-(piperazin-1-yl)benzyl)urea]: 23 nM; `C#C[C@](C)(c1ccc(Cl)cc1)c1csc(NC(=O)c2c(F)cc(N3CCN(CCO)CC3)cc2F)n1` [Example C022, (R)-N-(4-(2-(4-chlorophenyl)but-3-yn-2-yl)thiazol-2-yl)-2,6-difluoro-4-(4-(2-hydroxyethyl)piperazin-1-yl)benzamide]: 188 nM.
As to `CC(C)(c1ccc(Br)cc1)c1csc(NC(=O)NCc2cnc(N3CCNC(=O)C3)nc2)n1` [Example A113, 1-(4-(2-(4-bromophenyl)propan-2-yl)thiazol-2-yl)-3-((2-(3-oxopiperazin-1-yl)pyrimidin-5-yl)methyl)urea], the IC50 came out at 126 nM.
As for `C#C[C@@](C)(c1ccc(Cl)cc1)c1csc(NC(=O)c2c(F)cc(N3CCC(N)C3)cc2F)n1` (stereo in doubt) [Example B088, 4-(3-aminopyrrolidin-1-yl)-N-(4-(2-(4-chlorophenyl)but-3-yn-2-yl)thiazol-2-yl)-2,6-difluorobenzamide], the IC50 under setting [1] was 42 nM.
`CC(c1ccc(C(=O)Nc2nc(C(C)(C)c3ccc(Br)cc3)cs2)cc1)N1CCNCC1` (centres unmarked) [Example B019, N-(4-(2-(4-bromophenyl)propan-2-yl)thiazol-2-yl)-4-(1-(piperazin-1-yl)ethyl)benzamide]: it took 98 nM to reach half-maximal inhibition under setting [1] (IC50).
On the same count and under the same terms, next, `COc1ccc(C(C)(C)c2csc(NC(=O)c3ccc(N4CCNCC4)cc3)n2)cc1` [Example B001, N-(4-(2-(4-methoxyphenyl)propan-2-yl)thiazol-2-yl)-4-(piperazin-1-yl)benzamide]: 123 nM; `COc1ccc(C(C)(C)c2csc(NC(=O)c3ccc(CN4CCNCC4)cc3F)n2)cc1` [Example B013, 2-fluoro-N-(4-(2-(4-methoxyphenyl)propan-2-yl)thiazol-2-yl)-4-(piperazin-1-ylmethyl)benzamide]: 111 nM.
`COc1ccc(C(C)(C)c2csc(NC(=O)NCCCCN)c2)cc1` [Example A188, 1-(4-aminobutyl)-3-(4-(2-(4-methoxyphenyl)propan-2-yl)thiophen-2-yl)urea]: the IC50 turned out to be 59 nM.
Under setting [1], `C#CC(C)(c1ccc(Cl)cc1)c1csc(NC(=O)c2c(F)cc(N3CCNC(CO)C3)cc2F)n1` (centres unmarked) [Example B083, N-(4-(2-(4-chlorophenyl)but-3-yn-2-yl)thiazol-2-yl)-2,6-difluoro-4-(3-(hydroxymethyl)piperazin-1-yl)benzamide] had a half-inhibitory concentration (IC50) of 78 nM.
On the same count and under the same terms, to `COc1ccc(C(C)(C)c2csc(NC(=O)c3ccc(NC4CCN(C)CC4)cc3)n2)cc1` [Example B028, N-(4-(2-(4-methoxyphenyl)propan-2-yl)thiazol-2-yl)-4-((1-methylpiperidin-4-yl)amino)benzamide] belongs 271 nM; to `CC(=O)Nc1nc(C(C)(C)c2ccc(Br)cc2)cs1` [Example D001, N-(4-(2-(4-bromophenyl)propan-2-yl)thiazol-2-yl)acetamide], 100 nM.
The same measure, in the same setting: next, `C#C[C@](C)(c1ccc(Cl)cc1)c1csc(NC(=O)c2c(F)cc(N3CCC(N)C3)cc2F)n1` (stereo in doubt) [Example B085, 4-(3-aminopyrrolidin-1-yl)-N-(4-(2-(4-chlorophenyl)but-3-yn-2-yl)thiazol-2-yl)-2,6-difluorobenzamide]: 395 nM; `COc1ccc(C(C)(C)c2csc(NC(=O)c3ccc(OCCN(C)C)cc3)n2)cc1` [Example B021, 4-(2-(dimethylamino)ethoxy)-N-(4-(2-(4-methoxyphenyl)propan-2-yl)thiazol-2-yl)benzamide]: 83 nM.
On the same count and under the same terms, next, `C#CC(C)(c1ccc(F)cc1)c1csc(NC(=O)c2ccc(N3CCNCC3)c(C(N)=O)c2)n1` (centres unmarked) [Example B081, N1-(4-(2-(4-fluorophenyl)but-3-yn-2-yl)thiazol-2-yl)-4-(piperazin-1-yl)isophthalamide]: 102 nM.
As for `CCOc1ccc(C(C)(C)c2csc(NC(=O)NCc3ccc(N4CCNCC4)cc3)n2)cc1` [Example A059, 1-(4-(2-(4-ethoxyphenyl)propan-2-yl)thiazol-2-yl)-3-(4-(piperazin-1-yl)benzyl)urea], it took 269 nM to reach half-maximal inhibition (IC50).
For `C#C[C@](C)(c1ccc(Cl)cc1)c1nc(NC(=O)c2c(F)cc(N3CCNCC3)cc2F)sc1Cl` (stereo in doubt) [Example C049, N-(5-chloro-4-(2-(4-chlorophenyl)but-3-yn-2-yl)thiazol-2-yl)-2,6-difluoro-4-(piperazin-1-yl)benzamide], the IC50 under setting [1] is 4520 nM.
`COc1ccc(C(C)(C)c2csc(NC(=O)c3ccc(OC4CCN(CCO)CC4)cc3)n2)cc1` [Example B020, 4-((1-(2-hydroxyethyl)piperidin-4-yl)oxy)-N-(4-(2-(4-methoxyphenyl)propan-2-yl)thiazol-2-yl)benzamide] displayed an IC50 under setting [1] of 170 nM.
`COc1ccc(C(C)(C)c2csc(NC(=O)NCCCC(N)=O)n2)cc1` [Example A114, 4-(3-(4-(2-(4-methoxyphenyl)propan-2-yl)thiazol-2-yl)ureido)butanamide]: inhibition was half-maximal at 260 nM (IC50).
`CCOCC(C)(c1ccccc1)c1csc(NC(=O)c2c(F)cc(N3CCNCC3)cc2F)n1` (centres unmarked) [Example C012, N-(4-(1-ethoxy-2-phenylpropan-2-yl)thiazol-2-yl)-2,6-difluoro-4-(piperazin-1-yl)benzamide] showed an IC50 under setting [1] of 78 nM.
With `CNC(=O)Nc1nc(C(C)(C)c2ccc(OC)cc2)cs1` [Example A143, 1-(4-(2-(4-methoxyphenyl)propan-2-yl)thiazol-2-yl)-3-methylurea], the IC50 was 53 nM.
Molecule `CC(c1ccc(Cl)cc1)(c1csc(NC(=O)c2c(F)cc(N3CCNCC3)cc2F)n1)C1CC1` (centres unmarked) [Example C045, N-(4-(1-(4-chlorophenyl)-1-cyclopropylethyl)thiazol-2-yl)-2,6-difluoro-4-(piperazin-1-yl)benzamide] showed an IC50 under setting [1] of 25 nM.
Still for that read-out and setting: next, `COc1ccc(C(C)(C)c2csc(NC(=O)c3ccc(CN4CCN(CCO)CC4)nc3)n2)cc1` [Example B052, 6-((4-(2-hydroxyethyl)piperazin-1-yl)methyl)-N-(4-(2-(4-methoxyphenyl)propan-2-yl)thiazol-2-yl)nicotinamide]: 111 nM; `COc1ccc(C(C)(C)c2csc(NC(=O)c3ccc(N4CCC(N(C)C)C4)nc3)n2)cc1` (centres unmarked) [Example B010, 6-(3-(dimethylamino)pyrrolidin-1-yl)-N-(4-(2-(4-methoxyphenyl)propan-2-yl)thiazol-2-yl)nicotinamide]: 187 nM.
On the same count and under the same terms, to `Cc1ccc(C(C)(C)c2csc(NC(=O)c3ccc(CN4CCN(CCO)CC4)nc3)n2)cc1` [Example B059, 6-((4-(2-hydroxyethyl)piperazin-1-yl)methyl)-N-(4-(2-(p-tolyl)propan-2-yl)thiazol-2-yl)nicotinamide] belongs 159 nM; to `COc1ccc(C(C)(C)c2csc(NC(=O)c3ccc(N4CCN(CCO)CC4)cc3)n2)cc1` [Example B006, 4-(4-(2-hydroxyethyl)piperazin-1-yl)-N-(4-(2-(4-methoxyphenyl)propan-2-yl)thiazol-2-yl)benzamide], 595 nM.
On to `C#C[C@](C)(c1ccc(OC)cc1)c1csc(NC(=O)N2CC(CO)C2)n1` [Example A255, (R)-3-(hydroxymethyl)-N-(4-(2-(4-methoxyphenyl)but-3-yn-2-yl)thiazol-2-yl)azetidine-1-carboxamide], for which it took 688 nM to reach half-maximal inhibition (IC50).
Regarding `COc1ccc(C(C)(C)c2csc(NC(=O)c3ccc(NCCO)cc3)n2)cc1` [Example B032, 4-((2-hydroxyethyl)amino)-N-(4-(2-(4-methoxyphenyl)propan-2-yl)thiazol-2-yl)benzamide], the IC50 under setting [1] was 280 nM.
Still for that read-out and setting: next, `C#C[C@@](C)(c1ccc(F)cc1)c1csc(NC(=O)c2ccc(N3CCNCC3CO)cc2)n1` (stereo in doubt) [Example B071, N-[4-[1-(4-fluorophenyl)-1-methyl-prop-2-ynyl]thiazol-2-yl]-4-[2-(hydroxymethyl)piperazin-1-yl]benzamide]: 60 nM.
On the same count and under the same terms, next, `C#C[C@](C)(c1ccc(F)cc1)c1csc(NC(=O)c2c(F)cc(N3CCC(N)C3)cc2F)n1` (stereo in doubt) [Example B089, 4-(3-aminopyrrolidin-1-yl)-2,6-difluoro-N-(4-(2-(4-fluorophenyl)but-3-yn-2-yl)thiazol-2-yl)benzamide]: 681 nM.
